Patent US10526325B2, “Bicyclic heterocyclic derivatives” (Merck Patent GmbH, priority 2015, dated 2020)

Columns and labels:
human PDHK2 (12-407) = human PDHK2 (12-407) (Homo sapiens (Human), UniProt Q15119); experiment: Isothermal titration calorimetry (ITC) binding; conditions: ITC at 30° C., pH 7.5
Experimental: Isothermal Titration Calorimetry
ITC measurements were performed with a VP-ITC micro calorimeter (Microcal, LLC/GE Healthcare Bio-Sciences Aft Uppsala, Sweden). In general titrations were performed by titrating the protein (50 μM) to the test compound (5 μM) in 12 μl injections. All binding experiments were carried out at 30° C. In general the test compounds were diluted form DMSO stock solutions into the measurement buffer with a maximum final concentration of 1% DMSO. The measurement buffer was 20 mM HEPES, 135 mM KCl, 1 mM TCEP, 2 mM MgCl2, 15 mM NaH2PO4, pH 7.5. The human PDHK2 (12-407) was produced in E. coli as his-tagged protein and purified by affinity chromatography. The tag was removed by side specific proteolysis. Before titration the protein buffer was changed to the measurement buffer containing the same DMSO concentration as the test compound dilution. ITC data analysis was performed using Origin 7 calorimetry software from the same supplier. For most measurements a binding model of one binding site was assumed. According to the applied mathematical model it is possible to calculate the binding constant (KA), the observed binding enthalpy (ΔH^obs) as well as the stoichiometry (N) of the formed complex.
Preceding analysis the raw data was corrected for the heats of dilution by extrapolating from the saturation value from the end of titration. In order to allow for direct comparison between the respective experimental series and protein preparations the protein concentration was corrected by referencing titrations to a well behaved standard inhibitor. The apparent stoichiometry values defined the fraction of binding competent protein and compensated for relative errors in protein concentration measurements. This corrected protein concentration was used to set up ITC experiment series with test compounds. Any deviations from ideal 1:1 stoichiometry observed here were attributed to errors in compound concentration. This nominal compound concentration was corrected as well to achieve 1:1 stoichiometry in the fit.

[1] = system: PDH-E1alpha (pSer300) in HEK293T cells; experiment: Cellular immunofluorescence assay, PDH-E1alpha (pSer300) in HEK293T cells; format: cell-based, human; conditions: Homo sapiens, HEK-293T, 5 hours incubation, anti-PDH-E1alpha (pSer300) immunofluorescence, read-out: IC50 (cell data)
Experimental: Cellular Assay for Determination of Compound Activities
Compound activities were determined in a cellular immunofluorescence assay. Human HEK293T cells were seeded into black 384-well plates with clear bottom and grown overnight.
Next day, test compounds were added to the wells and the plates incubated for 5 hours. Following this, cells were fixed with formaldehyde, permeabilised and blocked. The primary antibody, Anti-PDH-E1alpha (pSer300), AP1064 (Merck Millipore) was added and incubated overnight in the plate wells. Next, cells were washed and the secondary antibody, Alexa Fluor 488, goat anti-rabbit ab (A-11008, Invitrogen) was added together with Hoechst 33258 (H3569, Invitrogen) and incubated for 1 hour in the plate wells. Finally, cells were washed and the plates were measured on the laser scanning cytometer acumen hci (TTpLabtech).
The raw data were normalized against a pharmacological inhibitor control and dose response curves were generated by plotting the percent effect values using the software package Genedata screener (Genedata).

PDHK2 = PDHK2 (Homo sapiens (Human), UniProt Q15119); experiment: Biochemical activity testing of PDHK2: PDC inactivation assay; conditions: human rec PDHK2, porcine heart PDC, 5 μM ATP, read-out: IC50 PDHK2 (enzyme assay)
From the text: Biochemical Activity Testing of PDHK2: PDC Inactivation Assay
The biochemical activity assay for PDHK2 is based on the inactivation of PDC through phosphorylation by PDHK2. The assay is run in two steps: the enzymatic PDHK2 reaction in which isolated PDC is phosphorylated by PDHK2 with ATP as co-substrate and the PDC activity assay in which pyruvate and NAD are converted to acetyl-CoA and NADH. The PDC activity correlates to the increase in NADH and thereby is detectable directly via the increasing fluorescence signal (Exc 340 nm, Em 450 nm). Inhibition of PDHK2 results in a lower phosphorylation status and thereby a less decrease in activity of PDC and a stronger increase in NADH fluorescence signal.
The PDC inactivation assay is performed in Greiner 384-well microtiter plates and is used for high throughput screen. 4 μl of PDHK2 (human, rec, Carna Bioscience, 10 ng/μl-137 nM final concentration) and PDC (isolated from porcine heart, Sigma-Aldrich, 20 mU/ml final concentration) are incubated in the absence or presence of the test compound (10 dilution concentrations) for 30 min at room temperature in kinase buffer (15 mM potassium phosphate buffer, pH 7.0, 60 mM KCl, 1.5 mM DTT, 2.5 mM MgCl2, 0.0125% (w/v) BSA, 0.125% Pluronic F-68). The kinase reaction is started by the addition of 4 μl ATP substrate solution (fc 5 μM in kinase buffer). After 30 min incubation at 37° C. 40 μl of PDC reaction solution (100 mM Tris/HCl, pH 7.8, 0.5 mM EDTA, 1 mM MgCl2, 50 mM NaF, 0.25 mM Coenzyme A, 5 mM pyruvate, 1 mM NAD, 5 mM DTT, 1 mM thiamine pyrophosphate) is added. The first fluorescence measurement is performed on a Perkin Elmer Envision (Exc 340 nm, Em 450 nm). The reaction is incubated for 45 min at room temperature. Afterwards a second fluorescence measurement is performed and the PDC activity is calculated by the difference between both measurements. As full value for the PDHK2 assay the inhibitor-free PDHK2 reaction is used. The pharmacological zero value used is DCA (Sigma-Aldrich) in a final concentration of 3 mM. The inhibitory values […] were determined using either the program Symyx Assay Explorer® or Condosseo® from GeneData.

| SMILES | Kd (human PDHK2 (12-407)) [nM] | IC50 [1] [nM] | IC50 (PDHK2) [nM] |
| --- | --- | --- | --- |
| C[C@@](O)(C(=O)N1CCc2c(cnn2-c2ccc(Cl)cc2)C1)C(F)(F)F [Compound A1, (2R)-1-[1-(4-chlorophenyl)-6,7-dihydro-4H-pyrazolo[4,3-c]pyridin-5-yl]-3,3,3-trifluoro-2-hydroxy-2-methyl-propan-1-one] | < 300 | 3000 to 50000 | < 300 |
| C[C@@](O)(C(=O)N1CCc2c(cnn2-c2ccccc2)C1)C(F)(F)F [Compound A3, (R)-3,3,3-Trifluoro-2-hydroxy-2-methyl-1-(1-phenyl-1,4,6,7-tetrahydro-pyrazolo[4,3-c]pyridin-5-yl)-propan-1-one] | < 300 | 300 to 3000 | < 300 |
| C[C@@](O)(C(=O)N1CCc2c(cnn2-c2ccc(F)cc2)C1)C(F)(F)F [Compound A4, (R)-3,3,3-Trifluoro-1-[1-(4-fluoro-phenyl)-1,4,6,7-tetrahydro-pyrazolo[4,3-c]pyridin-5-yl]-2-hydroxy-2-methyl-propan-1-one] | < 300 | 300 to 3000 | < 300 |
| C[C@@](O)(C(=O)N1CCc2c(cnn2-c2ccc(F)cc2F)C1)C(F)(F)F [Compound A5, (R)-1-[1-(2,4-Difluoro-phenyl)-1,4,6,7-tetrahydro-pyrazolo[4,3-c]pyridin-5-yl]-3,3,3-trifluoro-2-hydroxy-2-methyl-propan-1-one] | < 300 | 300 to 3000 | < 300 |
| C[C@@](O)(C(=O)N1CCc2nn(-c3ccc(F)cc3F)cc2C1)C(F)(F)F [Compound A6, (R)-1-[2-(2,4-Difluoro-phenyl)-2,4,6,7-tetrahydro-pyrazolo[4,3-c]pyridin-5-yl]-3,3,3-trifluoro-2-hydroxy-2-methyl-propan-1-one] | < 300 | 3000 to 50000 | 300 to 3000 |
| CC(C)(C)n1ncc2c1CCN(C(=O)[C@@](C)(O)C(F)(F)F)C2 [Compound A7, (R)-1-(1-tert-Butyl-1,4,6,7-tetrahydro-pyrazolo[4,3-c]pyridin-5-yl)-3,3,3-trifluoro-2-hydroxy-2-methyl-propan-1-one] | < 300 | 300 to 3000 | < 300 |
| CC(C)(C)n1cc2c(n1)CCN(C(=O)[C@@](C)(O)C(F)(F)F)C2 [Compound A8, (R)-1-(2-tert-Butyl-2,4,6,7-tetrahydro-pyrazolo[4,3-c]pyridin-5-yl)-3,3,3-trifluoro-2-hydroxy-2-methyl-propan-1-one] | 300 to 3000 | 3000 to 50000 | 300 to 3000 |
| CC1CN(C(=O)[C@@](C)(O)C(F)(F)F)Cc2cnn(-c3ccc(Cl)cc3)c21 (stereo partly drawn) [Compound A9, (2R)-1-[1-(4-chlorophenyl)-7-methyl-6,7-dihydro-4H-pyrazolo[4,3-c]pyridin-5-yl]-3,3,3-trifluoro-2-hydroxy-2-methyl-propan-1-one] | < 300 | < 300 | < 300 |
| C[C@@H]1CN(C(=O)[C@@](C)(O)C(F)(F)F)Cc2cnn(-c3ccc(Cl)cc3)c21 [Compound A10, (R)-1-[(R)-1-(4-Chloro-phenyl)-7-methyl-1,4,6,7-tetrahydro-pyrazolo[4,3-c]pyridin-5-yl]-3,3,3-trifluoro-2-hydroxy-2-methyl-propan-1-one] | < 300 | < 300 | < 300 |
| C[C@H]1CN(C(=O)[C@@](C)(O)C(F)(F)F)Cc2cnn(-c3ccc(Cl)cc3)c21 [Compound A11, (R)-1-[(S)-1-(4-Chloro-phenyl)-7-methyl-1,4,6,7-tetrahydro-pyrazolo[4,3-c]pyridin-5-yl]-3,3,3-trifluoro-2-hydroxy-2-methyl-propan-1-one] | 300 to 3000 | 300 to 3000 | 3000 to 50000 |
| CC1CN(C(=O)[C@@](C)(O)C(F)(F)F)Cc2cnn(-c3ccc(F)cc3)c21 (stereo partly drawn) [Compound A12, (2R)-3,3,3-trifluoro-1-[1-(4-fluorophenyl)-7-methyl-6,7-dihydro-4H-pyrazolo[4,3-c]pyridin-5-yl]-2-hydroxy-2-methyl-propan-1-one] | < 300 | < 300 | < 300 |
| CC1CN(C(=O)[C@@](C)(O)C(F)(F)F)Cc2cn(-c3ccc(F)cc3)nc21 (stereo partly drawn) [Compound A13, (2R)-3,3,3-trifluoro-1-[2-(4-fluorophenyl)-7-methyl-6,7-dihydro-4H-pyrazolo[4,3-c]pyridin-5-yl]-2-hydroxy-2-methyl-propan-1-one] | 300 to 3000 | 3000 to 50000 | 300 to 3000 |
| C[C@@H]1CN(C(=O)[C@@](C)(O)C(F)(F)F)Cc2cnn(-c3ccc(F)cc3)c21 [Compound A14, (R)-3,3,3-Trifluoro-1-[(R)-1-(4-fluoro-phenyl)-7-methyl-1,4,6,7-tetrahydro-pyrazolo[4,3-c]pyridin-5-yl]-2-hydroxy-2-methyl-propan-1-one] | < 300 | < 300 | < 300 |
| CC1CN(C(=O)[C@@](C)(O)C(F)(F)F)Cc2cnn(-c3ccccc3)c21 (stereo partly drawn) [Compound A16, (R)-3,3,3-Trifluoro-2-hydroxy-2-methyl-1-(7-methyl-1-phenyl-1,4,6,7-tetra-hydro-pyrazolo[4,3-c]pyridin-5-yl)-propan-1-one] | < 300 | < 300 | < 300 |
| CC1CN(C(=O)[C@@](C)(O)C(F)(F)F)Cc2cn(-c3ccccc3)nc21 (stereo partly drawn) [Compound A17, (R)-3,3,3-Trifluoro-2-hydroxy-2-methyl-1-(7-methyl-2-phenyl-2,4,6,7-tetra-hydro-pyrazolo[4,3-c]pyridin-5-yl)-propan-1-one] | 300 to 3000 | 300 to 3000 | 300 to 3000 |
| C[C@@H]1CN(C(=O)[C@@](C)(O)C(F)(F)F)Cc2cnn(-c3ccccc3)c21 [Compound A18, (R)-3,3,3-Trifluoro-2-hydroxy-2-methyl-1-((R)-7-methyl-1-phenyl-1,4,6,7-tetrahydro-pyrazolo[4,3-c]pyridin-5-yl)-propan-1-one] | < 300 | < 300 | < 300 |
| C[C@@](O)(C(=O)N1CCc2c(ncn2-c2ccc(F)cc2)C1)C(F)(F)F [Compound A44, (R)-3,3,3-Trifluoro-1-[1-(4-fluoro-phenyl)-1,4,6,7-tetrahydro-imidazo[4,5-c]pyridin-5-yl]-2-hydroxy-2-methyl-propan-1-one] |  | 3000 to 50000 | 300 to 3000 |
| C[C@@](O)(C(=O)N1CCc2c(ncn2-c2ccc(Cl)cc2)C1)C(F)(F)F [Compound A45, (R)-1-[1-(4-Chloro-phenyl)-1,4,6,7-tetrahydro-imidazo[4,5-c]pyridin-5-yl]-3,3,3-trifluoro-2-hydroxy-2-methyl-propan-1-one] |  | 3000 to 50000 | 300 to 3000 |
